Laboratory results taken from ChEMBL document CHEMBL3885861, “Open TG-GATES”.

Species: Rattus norvegicus
Assay: Open TG-GATES - Regimen: Daily Repeat
Type: toxicity, organism-based, Sprague-Dawley
Parameters: regimen Daily Repeat, gender Male, age 6 weeks
Details: in vivo, po, 50 mg/kg, route gavage, dose level Middle; for APTT / Bas / Eos / Fbg / Hb / Ht / Lym / MCH / MCHC / MCV / Mono / Neu / PT / Plat / RBC / Ret / WBC: tissue Blood; for KIDNEY_L / KIDNEY_R / KIDNEY_TOTAL: tissue Kidney; for LIVER: tissue Liver; for A/G / ALP / ALT / AST / BUN / CRE / Ca / Cl / DBIL / GLC / IP / K / LDH / Na / PL / RALB / TBIL / TC / TG / TP / gamma-GTP: tissue Plasma

O=c1ccc2ccccc2o1 [COUMARIN] was tested, and the TERMINAL_BW (72 h, time 3 day) was 194.4 g, the APTT (72 h, time 3 day) was 14.9 s and the Bas (72 h, time 3 day) was 0%. The Eos (72 h, time 3 day) was 1.2%, the Fbg (72 h, time 3 day) was 201.2 mg/dL and the Hb (72 h, time 3 day) was 13.2 g/dL. For the same compound, the Ht (72 h, time 3 day) was 40.2%, the Lym (72 h, time 3 day) was 71.6% and the MCH (72 h, time 3 day) was 21.3 pg. For the same compound, the MCHC (72 h, time 3 day) was 33%, the MCV (72 h, time 3 day) was 64.5 fL and the Mono (72 h, time 3 day) was 6.2%. The Neu (72 h, time 3 day) was 21%, the PT (72 h, time 3 day) was 11.4 s and the Plat (72 h, time 3 day) was 114.2 x10_4/uL. The RBC (72 h, time 3 day) was 623.4 x10_4/ul, the Ret (72 h, time 3 day) was 7.4% and the WBC (72 h, time 3 day) was 101.6 x10_2/uL. For the same compound, the KIDNEY_L (72 h, time 3 day) was 0.9 g, the KIDNEY_R (72 h, time 3 day) was 0.9 g and the KIDNEY_TOTAL (72 h, time 3 day) was 1.8 g. The LIVER (72 h, time 3 day) was 10 g, the A/G (72 h, time 3 day) was 1.9 and the ALP (72 h, time 3 day) was 1143 IU/L. It also gave an ALT (72 h, time 3 day) of 43.8 IU/L, an AST (72 h, time 3 day) of 65.4 IU/L and a BUN (72 h, time 3 day) of 14.2 mg/dL. The CRE (72 h, time 3 day) was 0.5 mg/dL, the Ca (72 h, time 3 day) was 10.9 mg/dL and the Cl (72 h, time 3 day) was 106 meq/L. The DBIL (72 h, time 3 day) was 0.03 mg/dL, the GLC (72 h, time 3 day) was 182.4 mg/dL and the IP (72 h, time 3 day) was 7.6 mg/dL. For the same compound, the K (72 h, time 3 day) was 5.2 meq/L, the LDH (72 h, time 3 day) was 94 IU/L and the Na (72 h, time 3 day) was 139.4 meq/L. It also gave a PL (72 h, time 3 day) of 150.6 mg/dL, an RALB (72 h, time 3 day) of 3.7 g/dL and a TBIL (72 h, time 3 day) of 0.3 mg/dL. For the same compound, the TC (72 h, time 3 day) was 95.4 mg/dL, the TG (72 h, time 3 day) was 37 mg/dL and the TP (72 h, time 3 day) was 5.7 g/dL. For the same compound, the gamma-GTP (72 h, time 3 day) was 1.2 IU/L, the TERMINAL_BW ([…], time 7 day) was 221.4 g and the TERMINAL_BW ([…], time 14 day) was 270.1 g. It also gave a TERMINAL_BW ([…], time 28 day) of 361.7 g, an APTT ([…], time 7 day) of 16.9 s and a Bas ([…], time 7 day) of 0%. For the same compound, the Eos ([…], time 7 day) was 1%, the Fbg ([…], time 7 day) was 218 mg/dL and the Hb ([…], time 7 day) was 13.4 g/dL. It also gave a Ht ([…], time 7 day) of 39.9%, a Lym ([…], time 7 day) of 82.8% and an MCH ([…], time 7 day) of 21.3 pg. For the same compound, the MCHC ([…], time 7 day) was 33.4%, the MCV ([…], time 7 day) was 63.9 fL and the Mono ([…], time 7 day) was 3.2%. It also gave a Neu ([…], time 7 day) of 13.4%, a PT ([…], time 7 day) of 11.3 s and a Plat ([…], time 7 day) of 120.8 x10_4/uL. The RBC ([…], time 7 day) was 625 x10_4/ul, the Ret ([…], time 7 day) was 6.2% and the WBC ([…], time 7 day) was 135.8 x10_2/uL. The APTT ([…], time 14 day) was 17.5 s, the Bas ([…], time 14 day) was 0% and the Eos ([…], time 14 day) was 0.6%. The Fbg ([…], time 14 day) was 249 mg/dL, the Hb ([…], time 14 day) was 13.8 g/dL and the Ht ([…], time 14 day) was 41.7%. It also gave a Lym ([…], time 14 day) of 87%, an MCH ([…], time 14 day) of 20.1 pg and an MCHC ([…], time 14 day) of 33.2%. It also gave an MCV ([…], time 14 day) of 60.5 fL, a Mono ([…], time 14 day) of 3.8% and a Neu ([…], time 14 day) of 8.8%. The PT ([…], time 14 day) was 11.3 s, the Plat ([…], time 14 day) was 120.6 x10_4/uL and the RBC ([…], time 14 day) was 689.8 x10_4/ul. For the same compound, the Ret ([…], time 14 day) was 4.8%, the WBC ([…], time 14 day) was 163.9 x10_2/uL and the APTT ([…], time 28 day) was 19 s. It also gave a Bas ([…], time 28 day) of 0%, an Eos ([…], time 28 day) of 1% and a Fbg ([…], time 28 day) of 239.2 mg/dL. The Hb ([…], time 28 day) was 14.2 g/dL, the Ht ([…], time 28 day) was 42.4% and the Lym ([…], time 28 day) was 81%. For the same compound, the MCH ([…], time 28 day) was 19.1 pg, the MCHC ([…], time 28 day) was 33.6% and the MCV ([…], time 28 day) was 56.8 fL. The Mono ([…], time 28 day) was 4.2%, the Neu ([…], time 28 day) was 14.2% and the PT ([…], time 28 day) was 11.6 s. It also gave a Plat ([…], time 28 day) of 109.4 x10_4/uL, an RBC ([…], time 28 day) of 745.8 x10_4/ul and a Ret ([…], time 28 day) of 3.1%. For the same compound, the WBC ([…], time 28 day) was 125.8 x10_2/uL, the KIDNEY_L ([…], time 7 day) was 1 g and the KIDNEY_R ([…], time 7 day) was 1 g. It also gave a KIDNEY_TOTAL ([…], time 7 day) of 2.1 g, a KIDNEY_L ([…], time 14 day) of 1.2 g and a KIDNEY_R ([…], time 14 day) of 1.2 g. The KIDNEY_TOTAL ([…], time 14 day) was 2.3 g, the KIDNEY_L ([…], time 28 day) was 1.4 g and the KIDNEY_R ([…], time 28 day) was 1.4 g. For the same compound, the KIDNEY_TOTAL ([…], time 28 day) was 2.7 g, the LIVER ([…], time 7 day) was 11.3 g and the LIVER ([…], time 14 day) was 14.8 g. For the same compound, the LIVER ([…], time 28 day) was 19 g, the A/G ([…], time 7 day) was 2 and the ALP ([…], time 7 day) was 996 IU/L. It also gave an ALT ([…], time 7 day) of 41 IU/L, an AST ([…], time 7 day) of 54.2 IU/L and a BUN ([…], time 7 day) of 15 mg/dL. The CRE ([…], time 7 day) was 0.6 mg/dL, the Ca ([…], time 7 day) was 11 mg/dL and the Cl ([…], time 7 day) was 104.8 meq/L. The DBIL ([…], time 7 day) was 0.04 mg/dL, the GLC ([…], time 7 day) was 193.6 mg/dL and the IP ([…], time 7 day) was 7.7 mg/dL. It also gave a K ([…], time 7 day) of 5 meq/L, an LDH ([…], time 7 day) of 98.8 IU/L and a Na ([…], time 7 day) of 139 meq/L. For the same compound, the PL ([…], time 7 day) was 164.6 mg/dL, the RALB ([…], time 7 day) was 3.9 g/dL and the TBIL ([…], time 7 day) was 0.3 mg/dL. For the same compound, the TC ([…], time 7 day) was 99.6 mg/dL, the TG ([…], time 7 day) was 36 mg/dL and the TP ([…], time 7 day) was 5.9 g/dL. For the same compound, the gamma-GTP ([…], time 7 day) was 1 IU/L, the A/G ([…], time 14 day) was 2 and the ALP ([…], time 14 day) was 739.4 IU/L. The ALT ([…], time 14 day) was 34 IU/L, the AST ([…], time 14 day) was 53.8 IU/L and the BUN ([…], time 14 day) was 19.6 mg/dL. It also gave a CRE ([…], time 14 day) of 0.5 mg/dL, a Ca ([…], time 14 day) of 11.1 mg/dL and a Cl ([…], time 14 day) of 105.4 meq/L. For the same compound, the DBIL ([…], time 14 day) was 0.068 mg/dL, the GLC ([…], time 14 day) was 194 mg/dL and the IP ([…], time 14 day) was 6.8 mg/dL. It also gave a K ([…], time 14 day) of 4.8 meq/L, an LDH ([…], time 14 day) of 81.2 IU/L and a Na ([…], time 14 day) of 138.6 meq/L. The PL ([…], time 14 day) was 212.4 mg/dL, the RALB ([…], time 14 day) was 4.2 g/dL and the TBIL ([…], time 14 day) was 0.3 mg/dL. It also gave a TC ([…], time 14 day) of 115.8 mg/dL, a TG ([…], time 14 day) of 88.4 mg/dL and a TP ([…], time 14 day) of 6.4 g/dL. It also gave a gamma-GTP ([…], time 14 day) of 1 IU/L, an A/G ([…], time 28 day) of 1.7 and an ALP ([…], time 28 day) of 603 IU/L. It also gave an ALT ([…], time 28 day) of 41.8 IU/L, an AST ([…], time 28 day) of 52 IU/L and a BUN ([…], time 28 day) of 21 mg/dL. It also gave a CRE ([…], time 28 day) of 0.6 mg/dL, a Ca ([…], time 28 day) of 11 mg/dL and a Cl ([…], time 28 day) of 105.2 meq/L. It also gave a DBIL ([…], time 28 day) of 0.022 mg/dL, a GLC ([…], time 28 day) of 183.4 mg/dL and an IP ([…], time 28 day) of 6.4 mg/dL. For the same compound, the K ([…], time 28 day) was 4.4 meq/L, the LDH ([…], time 28 day) was 66.2 IU/L and the Na ([…], time 28 day) was 139.4 meq/L. For the same compound, the PL ([…], time 28 day) was 195.6 mg/dL, the RALB ([…], time 28 day) was 4.3 g/dL and the TBIL ([…], time 28 day) was 0.3 mg/dL. It also gave a TC ([…], time 28 day) of 99.2 mg/dL, a TG ([…], time 28 day) of 104 mg/dL and a TP ([…], time 28 day) of 6.9 g/dL. It also gave a gamma-GTP ([…], time 28 day) of 1.6 IU/L.
